Values quoted from earlier work as cited in patent publication US6627208B2, “Biocidal material with improved activity” (Eastman Kodak Company, priority 1999, dated 2003).
≈ marks a conversion by molar mass, not a printed value.

Conditions: limit of solubility

Q: Which solubility in water does the source give for CCCCCCCCn1sc(Cl)c(Cl)c1=O [Kathon 287T®] here?
A: The solubility in water was 5 µg/mL (≈ 17.7 µM).
